Measurements reported in US10004701B2, “Methods and compositions for treating infection” (UNIVERSITY OF ROCHESTER, priority 2012, dated 2018).
Read-outs that look alike come from different tables or passages of the source.

Columns and labels:
Assay in all cases: AK assay 384-well format, Prestwick library screening
P. aeruginosa = format: cell-based, Pseudomonas aeruginosa; settings: for fold induction at 50 µM: Pseudomonas aeruginosa, 3 h
E. cloacae = format: cell-based, Enterobacter cloacae; settings: for fold induction at 50 µM: Enterobacter cloacae, 3 h
E. faecium = format: cell-based, Enterococcus faecium; settings: for fold induction at 50 µM: Enterococcus faecium, 3 h
[1] = tested on: A. baumannii strain 98-37-09; format: cell-based, Acinetobacter baumannii; settings: for fold induction at 50 µM: Acinetobacter baumannii, 983709, 3 h
K. pneumoniae = format: cell-based, Klebsiella pneumoniae; settings: for fold induction at 50 µM: Klebsiella pneumoniae, 3 h
E. coli = format: cell-based, Escherichia coli; settings: for fold induction at 50 µM: Escherichia coli, 3 h
[2] = tested on: S. aureus strain USA300-0114; format: cell-based, Staphylococcus aureus; settings: for fold induction at 50 µM: Staphylococcus aureus, USA300, 3 h
[3] = 50 μM final drug concentration, planktonic, cutoff for positive 3-fold increase
[4] = 50 μM final drug concentration, planktonic, […]

Q: Which results are given for `C[C@]12CC[C@H](O)C[C@@H]1CC[C@@H]1[C@@H]2CC[C@]2(C)C(=O)CC[C@@H]12` [Epiandrosterone]?
A: fold induction at 50 µM (P. aeruginosa; read-out: AK-based Prestwick Library Screening Results, P. aeruginosa (increase in extracellular AK activity)): 0.8; fold induction at 50 µM (E. cloacae; read-out: AK-based Prestwick Library Screening Results, E. cloacae (increase in extracellular AK activity)): 1.1; fold induction at 50 µM (E. faecium; read-out: AK-based Prestwick Library Screening Results, E. faecium (increase in extracellular AK activity)): 1; fold induction at 50 µM ([1]; read-out: AK-based Prestwick Library Screening Results, A. baumannii (increase in extracellular AK activity)): 0.8; fold induction at 50 µM (K. pneumoniae; read-out: AK-based Prestwick Library Screening Results, K. pneumoniae (increase in extracellular AK activity)): 0.7; fold induction at 50 µM (E. coli; read-out: AK-based Prestwick Library Screening Results, E. coli (increase in extracellular AK activity)): 0.9; fold induction at 50 µM ([2]; read-out: AK-based Prestwick Library Screening Results, S. aureus (increase in extracellular AK activity)): 0.6

Q: What does the source list for `Oc1cc(O)c2c(c1)O[C@H](c1ccc(O)c(O)c1)[C@H](O)C2` [Epicatechin-(−)]?
A: AK-based Prestwick Library Screening Results, P. aeruginosa (fold increase in extracellular AK activity) (P. aeruginosa; [3]): 0.3; AK-based Prestwick Library Screening Results, E. cloacae (fold increase in extracellular AK activity) (E. cloacae; [3]): 0.3; AK-based Prestwick Library Screening Results, E. faecium (fold increase in extracellular AK activity) (E. faecium; [3]): 0.9; AK-based Prestwick Library Screening Results, A. baumannii (fold increase in extracellular AK activity) [1, 3]: 0.3; AK-based Prestwick Library Screening Results, K. pneumoniae (fold increase in extracellular AK activity) (K. pneumoniae; [3]): 0.4; AK-based Prestwick Library Screening Results, E. coli (fold increase in extracellular AK activity) (E. coli; [3]): 0.4; AK-based Prestwick Library Screening Results, S. aureus (fold increase in extracellular AK activity) [2, 3]: 0.3

Q: What does the source list for `COc1cc(C)nc(-n2nc(C)cc2OC)n1` [Epirizole]?
A: fold induction at 50 µM (P. aeruginosa; 50 μM final drug concentration, 384-well format, cutoff for positive-scoring molecules 3-fold increase, read-out: AK-based Prestwick Library Screening Results, P. aeruginosa (increase in extracellular AK activity)): 0.8; fold induction at 50 µM (E. cloacae; 50 μM final drug concentration, 384-well format, cutoff for positive-scoring molecules 3-fold increase, read-out: AK-based Prestwick Library Screening Results, E. cloacae (increase in extracellular AK activity)): 1.2; fold induction at 50 µM (E. faecium; 50 μM final drug concentration, 384-well format, cutoff for positive-scoring molecules 3-fold increase, read-out: AK-based Prestwick Library Screening Results, E. faecium (increase in extracellular AK activity)): 0.8; fold induction at 50 µM ([1]; 50 μM final drug concentration, 384-well format, cutoff for positive-scoring molecules 3-fold increase, read-out: AK-based Prestwick Library Screening Results, A. baumannii (increase in extracellular AK activity)): 0.9; fold induction at 50 µM (K. pneumoniae; 50 μM final drug concentration, 384-well format, cutoff for positive-scoring molecules 3-fold increase, read-out: AK-based Prestwick Library Screening Results, K. pneumoniae (increase in extracellular AK activity)): 0.7; fold induction at 50 µM (E. coli; 50 μM final drug concentration, 384-well format, cutoff for positive-scoring molecules 3-fold increase, read-out: AK-based Prestwick Library Screening Results, E. coli (increase in extracellular AK activity)): 1; fold induction at 50 µM ([2]; 50 μM final drug concentration, 384-well format, cutoff for positive-scoring molecules 3-fold increase, read-out: AK-based Prestwick Library Screening Results, S. aureus (increase in extracellular AK activity)): 2.2

Q: For `C[C@]12C[C@H]3S[C@H]3C[C@@H]1CC[C@@H]1[C@@H]2CC[C@]2(C)[C@@H](O)CC[C@@H]12` [Epitiostanol], which fold induction at 50 µM (P. aeruginosa; planktonic P. aeruginosa, 50 μM final drug concentration, […], read-out: AK-based Prestwick library screening result, P. aeruginosa (fold increase in extracellular AK activity)) is on record?
A: 1.1

Q: And the fold induction at 50 µM (E. cloacae; planktonic E. cloacae, 50 μM final drug concentration, […], read-out: AK-based Prestwick library screening result, E. cloacae (fold increase in extracellular AK activity))?
A: 1.3

Q: What about the fold induction at 50 µM (E. faecium; planktonic E. faecium, 50 μM final drug concentration, […], read-out: AK-based Prestwick library screening result, E. faecium (fold increase in extracellular AK activity)) of the same compound?
A: 1

Q: What about the fold induction at 50 µM ([1]; planktonic A. baumannii, 50 μM final drug concentration, […], read-out: AK-based Prestwick library screening result, A. baumannii (fold increase in extracellular AK activity)) of the same compound?
A: 1.1

Q: And the fold induction at 50 µM (K. pneumoniae; planktonic K. pneumoniae, 50 μM final drug concentration, […], read-out: AK-based Prestwick library screening result, K. pneumoniae (fold increase in extracellular AK activity))?
A: 0.9

Q: What about the fold induction at 50 µM (E. coli; planktonic E. coli, 50 μM final drug concentration, […], read-out: AK-based Prestwick library screening result, E. coli (fold increase in extracellular AK activity)) of the same compound?
A: 1.2

Q: And the fold induction at 50 µM ([2]; planktonic S. aureus, 50 μM final drug concentration, […], read-out: AK-based Prestwick library screening result, S. aureus (fold increase in extracellular AK activity))?
A: 0.9

Q: How did the “AK-based Prestwick Library Screening Results, P. aeruginosa (fold increase in extracellular AK activity)” value (P. aeruginosa; [4]) turn out when `CC[C@]12CCCN3CCc4c(n(c5ccccc45)[C@](O)(C(=O)OC)C1)[C@@H]32` [Epivincamine] was run?
A: 1.2

Q: What about the “AK-based Prestwick Library Screening Results, E. cloacae (fold increase in extracellular AK activity)” value (E. cloacae; [4]) of the same compound?
A: 1.6

Q: And the “AK-based Prestwick Library Screening Results, E. faecium (fold increase in extracellular AK activity)” value (E. faecium; [4])?
A: 1.0

Q: And the “AK-based Prestwick Library Screening Results, A. baumannii (fold increase in extracellular AK activity)” value [1, 4]?
A: 1.2

Q: What about the “AK-based Prestwick Library Screening Results, K. pneumoniae (fold increase in extracellular AK activity)” value (K. pneumoniae; [4]) of the same compound?
A: 1.2

Q: What about the “AK-based Prestwick Library Screening Results, E. coli (fold increase in extracellular AK activity)” value (E. coli; [4]) of the same compound?
A: 1.3

Q: What about the “AK-based Prestwick Library Screening Results, S. aureus (fold increase in extracellular AK activity)” value [2, 4] of the same compound?
A: 1.0

Q: What does the source list for `C[C@]12CC[C@H]3C(=CCc4cc(O)ccc43)[C@@H]1CCC2=O` [Equilin]?
A: fold induction at 50 µM (P. aeruginosa; read-out: AK-based Prestwick Library Screening Results, P. aeruginosa (fold increase in extracellular AK activity)): 1.1; fold induction at 50 µM (E. cloacae; read-out: AK-based Prestwick Library Screening Results, E. cloacae (fold increase in extracellular AK activity)): 1.4; fold induction at 50 µM (E. faecium; read-out: AK-based Prestwick Library Screening Results, E. faecium (fold increase in extracellular AK activity)): 1; fold induction at 50 µM ([1]; read-out: AK-based Prestwick Library Screening Results, A. baumannii (fold increase in extracellular AK activity)): 1; fold induction at 50 µM (K. pneumoniae; read-out: AK-based Prestwick Library Screening Results, K. pneumoniae (fold increase in extracellular AK activity)): 0.9; fold induction at 50 µM (E. coli; read-out: AK-based Prestwick Library Screening Results, E. coli (fold increase in extracellular AK activity)): 1.3; fold induction at 50 µM ([2]; read-out: AK-based Prestwick Library Screening Results, S. aureus (fold increase in extracellular AK activity)): 3.9

Q: How did the “AK-based Prestwick Library Screening Results, P. aeruginosa (fold increase in extracellular AK activity)” value (P. aeruginosa; [4]) turn out when `CC(C)C[C@H]1C(=O)N2CCC[C@H]2[C@]2(O)O[C@](NC(=O)[C@@H]3C=C4c5cccc6[nH]cc(c56)C[C@H]4N(C)C3)(C(C)C)C(=O)N12` [Ergocryptine-alpha] was run?
A: 0.4

Q: And the “AK-based Prestwick Library Screening Results, E. cloacae (fold increase in extracellular AK activity)” value (E. cloacae; [4])?
A: 0.4

Q: And the “AK-based Prestwick Library Screening Results, E. faecium (fold increase in extracellular AK activity)” value (E. faecium; [4])?
A: 0.7

Q: What about the “AK-based Prestwick Library Screening Results, A. baumannii (fold increase in extracellular AK activity)” value [1, 4] of the same compound?
A: 0.5

Q: What about the “AK-based Prestwick Library Screening Results, K. pneumoniae (fold increase in extracellular AK activity)” value (K. pneumoniae; [4]) of the same compound?
A: 0.5

Q: What about the “AK-based Prestwick Library Screening Results, E. coli (fold increase in extracellular AK activity)” value (E. coli; [4]) of the same compound?
A: 0.4

Q: And the “AK-based Prestwick Library Screening Results, S. aureus (fold increase in extracellular AK activity)” value [2, 4]?
A: 0.2

Q: With `O=c1ccc2cc(O)c(O)cc2o1` [Esculetin] as the compound, how does the fold induction at 50 µM (P. aeruginosa; 50 μM final drug concentration, […], read-out: AK-based Prestwick Library Screening Results, P. aeruginosa (fold increase in extracellular AK activity)) read?
A: 0.9

Q: And the fold induction at 50 µM (E. cloacae; 50 μM final drug concentration, […], read-out: AK-based Prestwick Library Screening Results, E. cloacae (fold increase in extracellular AK activity))?
A: 1.4

Q: What about the fold induction at 50 µM (E. faecium; 50 μM final drug concentration, […], read-out: AK-based Prestwick Library Screening Results, E. faecium (fold increase in extracellular AK activity)) of the same compound?
A: 1

Q: And the fold induction at 50 µM ([1]; 50 μM final drug concentration, […], read-out: AK-based Prestwick Library Screening Results, A. baumannii (fold increase in extracellular AK activity))?
A: 1.1

Q: What about the fold induction at 50 µM (K. pneumoniae; 50 μM final drug concentration, […], read-out: AK-based Prestwick Library Screening Results, K. pneumoniae (fold increase in extracellular AK activity)) of the same compound?
A: 1.2

Q: What about the fold induction at 50 µM (E. coli; 50 μM final drug concentration, […], read-out: AK-based Prestwick Library Screening Results, E. coli (fold increase in extracellular AK activity)) of the same compound?
A: 1.4

Q: What about the fold induction at 50 µM ([2]; 50 μM final drug concentration, […], read-out: AK-based Prestwick Library Screening Results, S. aureus (fold increase in extracellular AK activity)) of the same compound?
A: 1.1

Q: Which results are given for `O=c1ccc2cc(O[C@@H]3O[C@H](CO)[C@@H](O)[C@H](O)[C@H]3O)c(O)cc2o1` [Esculin Hydrate]?
A: fold induction at 50 µM (P. aeruginosa; 50 μM final drug concentration, planktonic, […], read-out: AK-based Prestwick Library Screening Results, P. aeruginosa (fold increase in extracellular AK activity)): 0.8; fold induction at 50 µM (E. cloacae; 50 μM final drug concentration, planktonic, […], read-out: AK-based Prestwick Library Screening Results, E. cloacae (fold increase in extracellular AK activity)): 0.9; fold induction at 50 µM (E. faecium; 50 μM final drug concentration, planktonic, […], read-out: AK-based Prestwick Library Screening Results, E. faecium (fold increase in extracellular AK activity)): 0.9; fold induction at 50 µM ([1]; 50 μM final drug concentration, planktonic, […], read-out: AK-based Prestwick Library Screening Results, A. baumannii (fold increase in extracellular AK activity)): 0.8; fold induction at 50 µM (K. pneumoniae; 50 μM final drug concentration, planktonic, […], read-out: AK-based Prestwick Library Screening Results, K. pneumoniae (fold increase in extracellular AK activity)): 0.6; fold induction at 50 µM (E. coli; 50 μM final drug concentration, planktonic, […], read-out: AK-based Prestwick Library Screening Results, E. coli (fold increase in extracellular AK activity)): 0.7; fold induction at 50 µM ([2]; 50 μM final drug concentration, planktonic, […], read-out: AK-based Prestwick Library Screening Results, S. aureus (fold increase in extracellular AK activity)): 0.7

Q: What does the source list for `CNC(=O)Oc1ccc2c(c1)[C@]1(C)CCN(C)[C@@H]1N2C.CNC(=O)Oc1ccc2c(c1)[C@]1(C)CCN(C)[C@@H]1N2C.O=S(=O)(O)O` [Eserine sulfate, physostigmine sulfate]?
A: AK-based Prestwick Library Screening Results, P. aeruginosa (increase in extracellular AK activity) (P. aeruginosa; planktonic P. aeruginosa, 50 μM final drug concentration, […]): 0.6; AK-based Prestwick Library Screening Results, E. cloacae (increase in extracellular AK activity) (E. cloacae; planktonic E. cloacae, 50 μM final drug concentration, […]): 0.7; AK-based Prestwick Library Screening Results, E. faecium (increase in extracellular AK activity) (E. faecium; planktonic E. faecium, 50 μM final drug concentration, […]): 0.9; AK-based Prestwick Library Screening Results, A. baumannii (increase in extracellular AK activity) ([1]; planktonic A. baumannii, 50 μM final drug concentration, […]): 0.5; AK-based Prestwick Library Screening Results, K. pneumoniae (increase in extracellular AK activity) (K. pneumoniae; planktonic K. pneumoniae, 50 μM final drug concentration, […]): 0.5; AK-based Prestwick Library Screening Results, E. coli (increase in extracellular AK activity) (E. coli; planktonic E. coli, 50 μM final drug concentration, […]): 0.7; AK-based Prestwick Library Screening Results, S. aureus (increase in extracellular AK activity) ([2]; planktonic S. aureus, 50 μM final drug concentration, […]): 0.4
